Source: PubChem BioAssay (NCI)
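Method: 48-hour compound exposure of cells in 96-well plates, five concentrations, linear interpolation of endpoints. GI50: concentration for 50% inhibition of growth. TGI marks complete inhibition of growth.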

Tests used:
Experiment in all cases: NCI tumour cell line growth inhibition, 48 h
[1] = tested on: M14 melanoma
[2] = tested on: 786-0 renal
[3] = tested on: SW-620 colon
[4] = tested on: OVCAR-4 ovarian
[5] = tested on: SF-268 CNS
[6] = tested on: NCI/ADR-RES ovarian
[7] = tested on: A549 NSCLC
[8] = tested on: SK-OV-3 ovarian
[9] = tested on: KM12 colon
[10] = tested on: MCF7 breast
[11] = tested on: MDA-MB-231 breast
[12] = tested on: HL-60(TB) leukemia
[13] = tested on: PC-3 prostate
[14] = tested on: LOX IMVI melanoma
[15] = tested on: HCT-116 colon
[16] = tested on: COLO 205 colon
[17] = tested on: MDA-MB-435
[18] = tested on: CAKI-1 renal
[19] = tested on: EKVX NSCLC
[20] = tested on: NCI-H226 lung
[21] = tested on: HT29 colon
[22] = tested on: OVCAR-5 ovarian
[23] = tested on: RXF 393 renal
[24] = tested on: OVCAR-8 ovarian
[25] = tested on: SNB-75 CNS
[26] = tested on: HCC-2998 colon
[27] = tested on: A498 renal
[28] = tested on: SK-MEL-5 melanoma
[29] = tested on: SF-295 CNS
[30] = tested on: OVCAR-3 ovarian
[31] = tested on: SK-MEL-28 melanoma
[32] = tested on: K-562 leukemia
[33] = tested on: IGROV1 ovarian
[34] = tested on: DU-145 prostate
[35] = tested on: BT-549 breast
[36] = tested on: UACC-257 melanoma
[37] = tested on: CCRF-CEM leukemia
[38] = tested on: SK-MEL-2 melanoma
[39] = tested on: NCI-H23 lung
[40] = tested on: HOP-62 NSCLC
[41] = tested on: UACC-62 melanoma
[42] = tested on: MALME-3M melanoma
[43] = tested on: T-47D breast
[44] = tested on: HCT-15 colon
[45] = tested on: SNB-19 CNS
[46] = tested on: NCI-H460 lung
[47] = tested on: NCI-H522 lung
[48] = tested on: SF-539 CNS
[49] = tested on: U251 CNS
[50] = tested on: UO-31 renal
[51] = tested on: TK-10 renal
[52] = tested on: ACHN renal
[53] = tested on: MOLT-4 leukemia
[54] = tested on: HS 578T breast
[55] = tested on: SR leukemia
[56] = tested on: HOP-92 NSCLC
[57] = tested on: RPMI-8226 leukemia

## O=Cc1ccc(-c2ccc(-c3nc4ccccc4o3)cc2)o1
[1]
  GI50: 44.1 µM
  TGI: > 100 µM
[2]
  GI50: 24.4 µM
  TGI: 92.8 µM
[3]
  GI50: 33 µM
  TGI: > 100 µM
[4]
  GI50: > 100 µM
  TGI: > 100 µM
[5]
  GI50: 29.6 µM
  TGI: > 100 µM
[6]
  GI50: 18.3 µM
  TGI: 63.8 µM
[7]
  GI50: 58.9 µM
  TGI: > 100 µM
[8]
  GI50: 41.9 µM
  TGI: > 100 µM
[9]
  GI50: 21 µM
  TGI: 53.4 µM
[10]
  GI50: 14.8 µM
  TGI: > 100 µM
[11]
  GI50: 21 µM
  TGI: 61.6 µM
[12]
  GI50: > 100 µM
  TGI: > 100 µM
[13]
  GI50: 30.3 µM
  TGI: > 100 µM
[14]
  GI50: 23 µM
  TGI: 60.2 µM
[15]
  GI50: 27.1 µM
  TGI: 80.4 µM
[16]
  GI50: 46.9 µM
  TGI: > 100 µM
[17]
  GI50: 33.1 µM
  TGI: > 100 µM
[18]
  GI50: 22.6 µM
  TGI: 65.9 µM
[19]
  GI50: 38.7 µM
  TGI: > 100 µM
[20]
  GI50: 17.9 µM
  TGI: > 100 µM
[21]
  GI50: 53.2 µM
  TGI: > 100 µM
[22]
  GI50: 29 µM
  TGI: 95.2 µM
[23]
  GI50: 22.6 µM
  TGI: 54.5 µM
[24]
  GI50: 33.3 µM
  TGI: > 100 µM
[25]
  GI50: 81.9 µM
  TGI: > 100 µM
[26]
  GI50: 28.6 µM
  TGI: 76.4 µM
[27]
  GI50: 21.2 µM
  TGI: > 100 µM
[28]
  GI50: 22 µM
  TGI: 62 µM
[29]
  GI50: 28 µM
  TGI: 85 µM
[30]
  GI50: 24.1 µM
  TGI: 61.9 µM
[31]
  GI50: 64.5 µM
  TGI: > 100 µM
[32]
  GI50: 23.6 µM
  TGI: > 100 µM
[33]
  GI50: 38.6 µM
  TGI: > 100 µM
[34]
  GI50: 50.1 µM
  TGI: > 100 µM
[35]
  GI50: 35.4 µM
  TGI: > 100 µM
[36]
  GI50: 92.3 µM
  TGI: > 100 µM
[37]
  GI50: > 100 µM
  TGI: > 100 µM
[38]
  GI50: 66.4 µM
  TGI: > 100 µM
[39]
  GI50: 31.8 µM
  TGI: > 100 µM
[40]
  GI50: 49.2 µM
  TGI: > 100 µM
[41]
  GI50: 21.7 µM
  TGI: 63.3 µM
[42]
  GI50: 24.6 µM
  TGI: 65 µM
[43]
  GI50: 34.8 µM
  TGI: > 100 µM
[44]
  GI50: 19.7 µM
  TGI: 53.4 µM
[45]
  GI50: > 100 µM
  TGI: > 100 µM
[46]
  GI50: 39.6 µM
  TGI: > 100 µM
[47]
  GI50: 24.4 µM
  TGI: 59.3 µM
[48]
  GI50: 32.3 µM
  TGI: > 100 µM
[49]
  GI50: 25.4 µM
  TGI: 88.1 µM
[50]
  GI50: 22.7 µM
  TGI: 68.5 µM
[51]
  GI50: 32.5 µM
  TGI: 74.8 µM
[52]
  GI50: 21.1 µM
  TGI: 58.2 µM
[53]
  GI50: 52 µM
  TGI: > 100 µM

## O=c1c(Cl)c(Cl)c(=O)c2sc3cc(Cl)ccc3[nH]c1=2
[1]
  TGI: > 100 µM
[2]
  TGI: > 100 µM
[3]
  TGI: 52.1 µM
[4]
  TGI: 22 µM
[5]
  TGI: > 100 µM
[6]
  TGI: 20.1 µM
[7]
  TGI: > 100 µM
[8]
  TGI: > 100 µM
[9]
  TGI: > 100 µM
[10]
  TGI: > 100 µM
[11]
  TGI: 7.71 µM
[54]
  TGI: > 100 µM
[12]
  TGI: 23.7 µM
[13]
  TGI: > 100 µM
[15]
  TGI: > 100 µM
[16]
  TGI: > 100 µM
[17]
  TGI: > 100 µM
[18]
  TGI: > 100 µM
[19]
  TGI: 28.7 µM
[20]
  TGI: > 100 µM
[21]
  TGI: > 100 µM
[22]
  TGI: > 100 µM
[23]
  TGI: > 100 µM
[24]
  TGI: 35 µM
[25]
  TGI: > 100 µM
[27]
  TGI: > 100 µM
[55]
  TGI: 21.5 µM
[28]
  TGI: > 100 µM
[29]
  TGI: > 100 µM
[30]
  TGI: 30.7 µM
[31]
  TGI: > 100 µM
[32]
  TGI: 34.6 µM
[33]
  TGI: > 100 µM
[34]
  TGI: > 100 µM
[36]
  TGI: 35.3 µM
[38]
  TGI: > 100 µM
[39]
  TGI: > 100 µM
[40]
  TGI: > 100 µM
[41]
  TGI: > 100 µM
[42]
  TGI: > 100 µM
[43]
  TGI: > 100 µM
[44]
  TGI: > 100 µM
[45]
  TGI: > 100 µM
[46]
  TGI: > 100 µM
[47]
  TGI: 35.2 µM
[56]
  TGI: 33.4 µM
[48]
  TGI: > 100 µM
[49]
  TGI: > 100 µM
[57]
  TGI: 17.2 µM
[50]
  TGI: 36 µM
[51]
  TGI: > 100 µM
[52]
  TGI: > 100 µM
[53]
  TGI: 14.5 µM
